Test systems include 786-0; A498; A549; ACHN; DU-145; EKVX; Hs-578T; M14; MDA-MB-231; Malme-3M; NCI-H460; PC-3; SF-295; SK-MEL-5; SK-OV-3; SNB-75; SR; TK-10; HOP-62; RPMI-8226.
Holding throughout (assay): inhibition of tumour cell growth, NCI panel, 48 h

These results are taken from ChEMBL document CHEMBL1201862, “PubChem BioAssay data set” (2004).

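Five concentrations, 48 hours, 96-well plates. At the GI50, growth is halved.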 Activity calls are given as the source filed them. Rule as the data show it: active = GI50 up to about 1.1 µM and inactive = higher.

Take `COP(=O)(OC)[C@@](O)(c1ccccc1)[C@@H](O)[C@@H](O)c1ccccc1`: the GI50 in the assay on 786-0 is 64.6 µM (inactive); with A498, > 100 µM (inactive); with A549, > 100 µM (inactive); in the assay on ACHN it was > 100 µM (inactive); in the assay with DU-145 it was > 100 µM (inactive); in the assay with EKVX it was > 100 µM (inactive). The GI50 in the assay on Hs-578T, in the assay with M14, in the assay with MDA-MB-231, in the assay with Malme-3M, in the assay on NCI-H460 and in the assay on PC-3 was > 100 µM (inactive) throughout. The GI50 with SF-295 was > 100 µM (inactive); with SK-MEL-5, > 100 µM (inactive); in the assay on SK-OV-3 it was > 100 µM (inactive); in the assay with SNB-75, > 100 µM (inactive); in the assay on SR, 0.531 µM (active); with TK-10, > 100 µM (inactive).
As to `COC(=O)C1=NN2c3ccccc3CN([C@@H](C)c3ccccc3)C(=O)[C@@H]2C1`, the GI50 in the assay on 786-0 is 41.2 µM (inactive); in the assay on A498 it was 91.8 µM (inactive); in the assay on A549, 31.4 µM (inactive); in the assay on ACHN, 34 µM (inactive); in the assay on DU-145, 30.8 µM (inactive); in the assay with EKVX, 24.6 µM (inactive). Further, the GI50 was 57.7 µM (inactive) in the assay with HOP-62; 41.1 µM (inactive) in the assay with Hs-578T; 16.5 µM (inactive) with M14; 57 µM (inactive) with MDA-MB-231; 23.1 µM (inactive) in the assay with Malme-3M; 58.3 µM (inactive) in the assay with NCI-H460. For the same molecule, the GI50 in the assay with PC-3 was 31.4 µM (inactive); with RPMI-8226 it was 24.5 µM (inactive); with SF-295, 40.2 µM (inactive); with SK-MEL-5, 18.7 µM (inactive); in the assay with SK-OV-3, > 100 µM (inactive); in the assay with SR it was 22 µM (inactive). In the assay with TK-10, the GI50 was 50.7 µM (inactive).
As for `Nc1c(Cl)cc(-c2nc3ccccc3s2)cc1Cl`, the GI50 was 22.6 µM (inactive) with 786-0; 0.288 µM (active) in the assay on A498; > 100 µM (inactive) with A549; > 100 µM (inactive) with ACHN; > 100 µM (inactive) in the assay with DU-145; > 100 µM (inactive) in the assay on EKVX. Also, the GI50 in the assay with HOP-62 is > 100 µM (inactive); with Hs-578T, > 100 µM (inactive); with M14 it was > 100 µM (inactive); in the assay on MDA-MB-231, 69 µM (inactive); with Malme-3M, > 100 µM (inactive); in the assay with NCI-H460, 0.556 µM (active). Moreover, the GI50 in the assay on PC-3, in the assay on SF-295, with SK-MEL-5, with SK-OV-3, in the assay with SNB-75 and in the assay with SR was > 100 µM (inactive) throughout. Also, the GI50 in the assay on TK-10 is 0.501 µM (active).
For the molecule `O=C(c1cccs1)N(Cc1cccnc1)C(=S)N(Cc1cccnc1)C(=O)c1cccs1`, the GI50 was 3.56 µM (inactive) with 786-0; 32.3 µM (inactive) in the assay with A498; > 100 µM (inactive) in the assay on A549; > 100 µM (inactive) in the assay on ACHN; > 100 µM (inactive) with DU-145; 44.1 µM (inactive) in the assay on EKVX. Besides, the GI50 with HOP-62 was 35.6 µM (inactive); in the assay on Hs-578T, 53.2 µM (inactive); in the assay on M14 it was 91.2 µM (inactive); in the assay with MDA-MB-231, > 100 µM (inactive); in the assay with Malme-3M it was > 100 µM (inactive); in the assay with NCI-H460 it was > 100 µM (inactive). The GI50 was 41.8 µM (inactive) in the assay with PC-3; 32.2 µM (inactive) with SF-295; > 100 µM (inactive) in the assay on SK-MEL-5; 37.8 µM (inactive) with SK-OV-3; 37.8 µM (inactive) with SNB-75; 7.82 µM (inactive) in the assay with SR. For the same molecule, the GI50 in the assay with TK-10 is 34 µM (inactive).
In the case of `CC[C@H](C)C1=C(OC(C)=O)[N@+]2([O-])Oc3ccc(-c4c(O)c(O)c(-c5ccc(OC(C)=O)cc5)c(OC(C)=O)c4OC(C)=O)cc3O[C@]2([C@@H](C)CC)C(=O)N1O`, the GI50 in the assay on 786-0 is 14.1 µM (inactive); in the assay with A498, 7.85 µM (inactive); in the assay with A549 it was 18.8 µM (inactive); in the assay with ACHN, 14.9 µM (inactive); in the assay on DU-145, 44.5 µM (inactive); in the assay with EKVX, 18.8 µM (inactive). Besides, the GI50 in the assay with HOP-62 was 24.6 µM (inactive); with Hs-578T, 29.3 µM (inactive); with M14, 28.2 µM (inactive); with MDA-MB-231, 17.8 µM (inactive); in the assay with Malme-3M, 16.6 µM (inactive); with NCI-H460 it was 18.5 µM (inactive). For the same molecule, the GI50 with PC-3 is 20.6 µM (inactive); with RPMI-8226, 7.85 µM (inactive); with SF-295 it was 22.8 µM (inactive); with SK-MEL-5 it was 16.4 µM (inactive); in the assay with SK-OV-3 it was 17.3 µM (inactive); in the assay on SR it was 13.6 µM (inactive). The GI50 with TK-10 is 20.4 µM (inactive).
As to `O=C(c1ccccc1)c1ccc2c(c1)NC(=O)c1ccccc1SSc1ccccc1C(=O)N2`, the GI50 in the assay with 786-0, in the assay on A498, in the assay with A549, with ACHN, with DU-145 and in the assay on EKVX was > 100 µM (inactive) throughout. In addition, the GI50 with HOP-62, in the assay with Hs-578T, in the assay on M14, in the assay on MDA-MB-231, in the assay with Malme-3M and in the assay on NCI-H460 was > 100 µM (inactive) throughout. For the same molecule, the GI50 with PC-3 was > 100 µM (inactive); with RPMI-8226 it was > 100 µM (inactive); with SF-295, > 100 µM (inactive); in the assay on SK-MEL-5 it was > 100 µM (inactive); in the assay with SK-OV-3, > 100 µM (inactive); in the assay on SR, 85.5 µM (inactive). The GI50 in the assay on TK-10 was > 100 µM (inactive).
With `CCCc1nc(Cl)c(Cl)c(Cl)n1`, the GI50 with 786-0 is 19.9 µM (inactive); in the assay with A498, > 100 µM (inactive); in the assay with A549 it was 19.1 µM (inactive); with DU-145 it was 35 µM (inactive); in the assay with EKVX it was 21.4 µM (inactive); with HOP-62, 33.7 µM (inactive). The GI50 in the assay on Hs-578T was 14.6 µM (inactive); in the assay with M14 it was 25.4 µM (inactive); in the assay with MDA-MB-231 it was 19.3 µM (inactive); with Malme-3M it was 10.7 µM (inactive); in the assay on NCI-H460, 38.9 µM (inactive); with PC-3 it was 0.426 µM (active). The GI50 with SF-295 was > 60.4 µM (inactive); in the assay on SK-MEL-5, 44.5 µM (inactive); in the assay on SK-OV-3 it was 53.6 µM (inactive); in the assay with SNB-75 it was 4.28 µM (inactive); with SR, 5.78 µM (inactive); with TK-10 it was > 71.9 µM (inactive).
For `O=C1C=C2CCC[C@H]3OC(=O)C[C@@]23CC1`, the GI50 in the assay with 786-0, in the assay with A498, in the assay on A549, in the assay on ACHN, with DU-145 and in the assay with EKVX was > 100 µM (inactive) each time. For the same molecule, the GI50 in the assay on HOP-62, in the assay on Hs-578T, with M14, with MDA-MB-231, in the assay on Malme-3M and with NCI-H460 was > 100 µM (inactive) each time. Further, the GI50 with PC-3, in the assay on RPMI-8226, with SF-295, with SK-MEL-5, in the assay with SK-OV-3 and in the assay with SR was > 100 µM (inactive) in each case. The GI50 in the assay on TK-10 is > 100 µM (inactive).
As for `N#CS/C(Cl)=C(/C(Cl)=C(Cl)Cl)[N+](=O)[O-]`, the GI50 in the assay with 786-0 was 28.2 µM (inactive); in the assay with A498, 79.6 µM (inactive); in the assay with A549, > 100 µM (inactive); with ACHN, 31.3 µM (inactive); in the assay with DU-145, > 100 µM (inactive); in the assay on EKVX, > 100 µM (inactive). The GI50 in the assay on HOP-62 was > 100 µM (inactive); in the assay on Hs-578T, 16.6 µM (inactive); in the assay on M14 it was 34.4 µM (inactive); with MDA-MB-231, 52.5 µM (inactive); in the assay on Malme-3M, 20.7 µM (inactive); with NCI-H460, 42.8 µM (inactive). Besides, the GI50 with PC-3 was 35.2 µM (inactive); with SF-295, 53.2 µM (inactive); in the assay on SK-MEL-5, 49.7 µM (inactive); with SK-OV-3, > 100 µM (inactive); with SNB-75 it was 32.3 µM (inactive); with SR, 24.7 µM (inactive). The GI50 in the assay with TK-10 was > 100 µM (inactive).
As to `CC[C@H](C)C1=C(O)[N@+]2([O-])Oc3ccc(-c4c(O)c(O)c(-c5ccc(OC(C)=O)cc5)c(OC(C)=O)c4OC(C)=O)cc3O[C@]2([C@@H](C)CC)C(=O)N1O`, the GI50 is 21.4 µM (inactive) with 786-0; 12.9 µM (inactive) in the assay with A498; 16.3 µM (inactive) with A549; 26.3 µM (inactive) with ACHN; > 50 µM (inactive) in the assay with DU-145; > 50 µM (inactive) in the assay with EKVX. For the same molecule, the GI50 in the assay on HOP-62 was 32 µM (inactive); with Hs-578T, 39.2 µM (inactive); with M14, 27.6 µM (inactive); with MDA-MB-231 it was 21.9 µM (inactive); in the assay with Malme-3M, 17.1 µM (inactive); in the assay with NCI-H460, 21.5 µM (inactive). Moreover, the GI50 with PC-3 is 34 µM (inactive); with RPMI-8226 it was 12.8 µM (inactive); in the assay with SF-295 it was 21.6 µM (inactive); in the assay on SK-MEL-5 it was 20 µM (inactive); with SK-OV-3, 15.4 µM (inactive); with SR it was 12.5 µM (inactive). Also, in the assay on TK-10, the GI50 was 25.5 µM (inactive).
